Results reported in patent US4737518A, “Lipid derivatives, their production and use” (Takeda Chemical Industries, Ltd., priority 1984, dated 1988).
“And” between values parts separate entries of the source, which are not always exact repeats. Identical values can stand only once.

Assays:
[1] = system: PAF-induced hypotension; test: Inhibitory activity against PAF-induced hypotension in rats; format: in vivo, rat (male Spraque-Dawley); details: PAF 0.3 μg/kg i.v.
Description: Inhibitory activity against PAF-induced hypotension in rats
Male Spraque-Dawley rats, with a body weight of about 400 g, were used under pentobarbital sodium (50 mg/kg, intravenous administration) anesthesia. A cannula was inserted into the femoral artery and secured in position for measurement of blood pressure and another cannula into the femoral vein for administration of a solution of the drug. The blood pressure was measured via a pressure transducer and recorded on a polygraph. First, 0.3 μg/kg of PAF was administered intravenously and the hypotensive response was recorded.
The inhibitory activity against PAF-induced hypotension was estimated from the rate of PAF-induced hypotensive response (Δ mmHg) after the drug administration to hypotensive response (Δ mmHg) by PAF before the drug administration.

[2] = system: KB cells; test: Cell growth inhibition assay, KB; format: cell-based; details: Homo sapiens, 72 h, concentration giving T/C 50%, day 4, read-out: ED50 (the source's name)
Description: (§1) 2×10^4 cells per well charged with GIT medium for KB cells (human epidermoid carcinoma cells), A549 cells (human lung carcinoma cells) and HSC-1 cells (human skin squamous carcinoma cells), and 4×10^4 cells for B16-BL6 cells (mouse melanoma cells) and 5×10^3 cells for Neuro-2a cells were inoculated. On day 1 (next day), various concentrations of the compound of Example 108 were added. On day 4, cells were suspended in a solution of trypsin-EDTA and the number of cells was counted. The ratio of cell number in treated culture to that in control culture was estimated as T/C (%) value. The concentration of the compound of Example 108 giving a value of T/C, 50% was defined as ED50.

[3] = system: B16-BL6 cells; test: Cell growth inhibition assay, B16-BL6; format: cell-based; details: Mus musculus, 72 h, concentration giving T/C 50%, day 4, read-out: ED50 (the source's name)
Description: as §1

[4] = system: rabbit platelet aggregation by PAF; test: Inhibitory activity on rabbit platelet aggregation by PAF; format: cell-based; details: Oryctolagus cuniculus, PAF 1×10^-8 M, read-out: rate of inhibition of rabbit platelet aggregation by PAF
[5] = system: Neuro-2a cells; test: Effect on morphological differentiation of neuroblastoma Neuro-2a; format: cell-based, mouse; details: three days, untreated 22
Description: Assay of the effects on inducing differentiation of HL-60 cells (human promyelocytic leukemia cells) and Neuro-2a cells (mouse neuroblastoma cells):
For Neuor-2a cells, 1×10^4 cells were inoculated into GIT medium (Daigo-eiyo Chemicals, Japan) and one day later various amounts of the compound of Example 108 were added. The cells were incubated for following three days at 37° C. in a 5% CO2 incubator.
The percentage of cells that were morphologically similar to neurocyte with extended neurite was determined by microscopical examination of cells more than 200.

[6] = system: endotoxin-induced hypotension; test: Anti-endotoxin shock activity in rats; format: in vivo, rat (male Spraque-Dawley); details: endotoxin 15 mg/kg i.v., one minute after
Description: Anti-endotoxin shock activity in rats
Male Spraque-Dawley rats weighting about 400 g were used under pentobarbital sodium (50 mg/kg, i.v.) anesthesia. A cannula was inserted into the femoral artery and secured in position for measurement of blood pressure and another cannula into femoral vein for administration of a solution of the drug. The blood pressure was measured via a pressure transducer and recorded on a polygraph. First, a suspension of endotoxin (15 mg/kg) [Lipopolysaccharide W.E. coli 0111: B4, Wako Pure Chemical] in physiological saline was administered intravenously and the maximum hypotensive response (Δ mmHg) occurring 3 to 5 minutes after administration was recorded. Simultaneously, the compound of Example 108 was dissolved in physiological saline and administered intravenously in a dose of 1 to 100 μg/kg. The restortion rate against endotoxin-induced hypotension one minute after the administration was calculated. The presence of preventive activity against endotoxin shock was judged from the strength of the restoration rate.

[7] = system: A549 cells; test: Cell growth inhibition assay, A549; format: cell-based; details: Homo sapiens, 72 h, concentration giving T/C 50%, day 4, read-out: ED50 (the source's name)
Description: as §1

[8] = system: HL-60 cells; test: Effect on inducing differentiation of HL-60 cells (NBT-positive cells); format: cell-based, human; details: 6 days
Description: Assay of the effects on inducing differentiation of HL-60 cells (human promyelocytic leukemia cells) and Neuro-2a cells (mouse neuroblastoma cells): RPMI-1640 medium (Flow Laboratories, Inc.) supplemented with 20% fetal calf serum (M.A. […] The culture was incubated at 37° C. in a 5% CO2 incubator for 6 days. […] The reaction was allowed to proceed at 37° C. for 20 minutes. The reaction was stopped by cooling with ice, and the cells were washed by means of centrifugation, followed by collecting 3-5×10^4 cells and by subjecting to centrifugation using Cytospin centrifuge to prepare a cell smear, which was fixed with methanol and stained with Kernechtrot solution. On each cell smear, the percentage of NBT-positive cells relative to live cells, […] by examination of a minimum of 200 cells, was expressed as the differentiation extent.

[9] = system: HSC-1 cells; test: Cell growth inhibition assay, HSC-1; format: cell-based; details: Homo sapiens, 72 h, concentration giving T/C 50%, day 4, read-out: ED50 (the source's name)
Description: as §1

[10] = system: Neuro-2a cells; test: Cell growth inhibition assay, Neuro-2a; format: cell-based; details: Mus musculus, N2a, 72 h, concentration giving T/C 50%, day 4, read-out: ED50 (the source's name)
Description: as §1

## CCCCCCCCCCCCCCCCCCNC(=O)OCC(COC(=O)N(Cc1cccc[n+]1CC)C(C)=O)OC (stereo not drawn) [Example 108, 1-Ethyl-2-[N-acetyl-N-(3-octadecylcarbamoyloxy-2-methoxypropyloxy)carbonyl]aminomethylpyridinium chloride]
[1]; 0.1 mg/kg i.v., after 5 min
  Restoration rate: 100%
[1]; 0.1 mg/kg i.v., after 60 min
  Restoration rate: 55%
[1]; 1 mg/kg i.v., after 5 min
  Restoration rate: 100%
[1]; 1 mg/kg i.v., after 60 min
  Restoration rate: 100%
[2]
  IC50: 0.16 µg/mL
[3]
  IC50: 2.5 µg/mL
[4]; test drug 3 × 10^-5 M
  inhibition at 30 µM: 100%
[4]; test drug 3 × 10^-6 M
  inhibition at 3 µM: 100%
[4]; test drug 3 × 10^-7 M
  inhibition at 0.3 µM: 100%
[5]; 2.5 μg/ml
  % of cells with neurite: 26%
[5]; 5 μg/ml
  % of cells with neurite: 33%
[5]; 10 μg/ml
  % of cells with neurite: 35%
[5]; 15 μg/ml
  % of cells with neurite: 44%
[5]; 20 μg/ml
  % of cells with neurite: 74%
[6]; 0.01 mg/kg i.v., 2 rats, single values
  Restoration rate against endotoxin-induced hypotension: 100% and 59%
[6]; 0.1 mg/kg i.v., 3 rats, mean ± standard error
  Restoration rate against endotoxin-induced hypotension: 97 ± 1%
[7]
  IC50: 0.63 µg/mL
[8]
  Maximum differentiation extent: Optimal conc.: 0.63 µg/mL
[8]; Homo sapiens, HL-60, 144 h, at optimal conc., NBT-positive relative to live cells, read-out: Maximum differentiation extent: Differentiation
  Emax: 83%
[9]
  IC50: 0.63 µg/mL
[10]
  IC50: 5 µg/mL
